Values joined by “and” are separate entries in the source; they are usually repeats but may differ in a detail not shown here. Equal values may be shown once. “Also recorded” adds a separate entry of the source.
Key:
[1] = molecular target: T1, mutant Q49 androgen receptor (Homo sapiens, UniProt P10275, INS80QQQQQQQQQQQQQQQQQQQQQQQQQQ); assay: Mutant androgen receptor inclusions in COS-1 cells transfected with GFPARQ49 (fluorescence microscopy); assay type: cell-based; conditions: COS-1 cells transfected with GFPARQ49, JC9 5 micromolar
T1 construct: GFP; expressed in transfected cells; host or cells: COS-1 (monkey kidney)
Method: Monkey kidney COS-1 cells were plated at a density of 3×10^4 cells per 0.5-milliliter volume onto alcohol-cleaned and sterilized cover slips placed in 35-millimeter suspension culture dishes containing Dulbecco's modified Eagle's (DME) medium containing 10% FBS. The cells were transfected with plasmids containing either the Q19 (plasmid GFPARQ19) or Q49 (plasmid GFPARQ49) mutant androgen receptor and green fluorescent protein (GFP) as a reporter. For each coverslip, 12.3 microliters SuperFect was added to 3.075 micrograms plasmid in 102.5 microliters DME medium (to give a 1:4 ratio of DNA to SuperFect reagent); the mixture was vortexed briefly, and the complex allowed to form over 15 minutes. Each mixture then received 897 microliters CD/DME and was mixed gently. The resulting 1-milliliter volumes were added to the dishes containing the coverslips (final plasmid concentration was 3.02 micrograms per dish). Cells were allowed to incubate with the transfection solution for 5 hours, then the medium was changed to fresh 1.5 milliliters CD/DME medium with either vehicle (DMSO) only added or JC9 (final concentration 5 micromolar). […] The coverslips were air-dried, mounted on slides with a glycerol-based mounting agent, and stored at 4 degrees Celsius if necessary prior to observation with fluorescence microscopy. […]

[2] = tested on: acne vulgaris; assay: Topical treatment of acne in human volunteers; assay type: in vivo; conditions: for Recovery Time: topical cream, per subject
Method: In this example, human subjects were successfully treated for acne by topical administration of a cream containing the compound JC15 or JC9, which were shown in the previous examples to ameliorate the effects of the androgen receptor-activated pathway, specifically by inducing degradation of the androgen receptor. A basic carrier formulation was prepared by mixing two solutions: (1) a water-based solution containing aristoflex avc, Osmocide, Tween 20, and water; and (2) an oil-based solution containing isopropyl myristate, coconut dienthanolamine, ethylparaben, isobutylparaben, methylparaben, and propylparaben. The test compounds (JC15 or JC9) were added to the cream to a final concentration of 1 to 2.5 micromolar, as needed.
Male and female human volunteers ranging in age from 15 years to 52 years were treated by topical application of the test compounds to the acne-affected skin. […] The results are given in Table 1, and a representative result (photo pictures) from one volunteer is depicted in FIG. 7.

[3] = tested on: sebaceous glands; assay: Reduction of sebaceous glands in Fuzzy rats by topical cream; assay type: in vivo; conditions: once daily; for size of the sebaceous glandular lobe and duct: male Fuzzy rats, 8 weeks
Description: In this example, the test compounds JC15 and JC9, which were shown in the previous examples to ameliorate the effects of the androgen receptor-activated pathway, specifically by inducing degradation of the androgen receptor, and to be effective in treating acne in human subjects, were used to reduce sebaceous glandular lobe size in an animal model. Effective reduction of sebaceous glands by topical treatment may be useful in treating skin conditions such as acne. Fuzzy rats were used in this animal model as described in Ye et al. (1997) Skin Pharmacol., 10:10288-10297, which is incorporated by reference in its entirety herein.
Topical creams were prepared as described in EXAMPLE 6. The test creams contained JC9 ([…]) or JC15 (1 micromolar); a control cream with only vehicle added was also prepared. The test or control creams were applied using a cotton swab to the dorsal skin of the animal, once daily, over a period of 8 weeks. Animals were then sacrificed and skin samples collected for microscopic examination. Commercial hair remover was applied to the dorsal surface of the euthanized animals. After 5 minutes, the hair remover and hairs were removed with a tissue. The area was thoroughly cleaned with 75% isopropyl alcohol. A 4-millimeter skin punch was used to remove skin tissue samples, which were incubated for 2 to 3 hours in a ethylenediaminetetraacetate (EDTA, 17 millimolar), sodium phosphate (0.1 molar, pH 7.4) solution at 37 degrees Celsius. The epidermis was carefully separated from the dermis and stored in 10% phosphate-buffered formalin. Prior to microscopic examination, the samples were mounted on glass slides. Areas of well-preserved glandular lobules were selected for microscopic imaging. Edges of the glandular lobes were traced and the areas of the traced lobes obtained with Image J software (National Institutes of Health).

[4] = molecular target: T2, ER beta (Homo sapiens, UniProt Q92731); assay: Western blot of LNCaP cell lysates, ER beta; assay type: cell-based; conditions: 1 or 2 micromolar, 24 hours, presence or absence of DHT
T2 construct: endogenous in cells; host or cells: LNCaP
Method: Human prostate cancer LNCaP cells and T47D cells were plated at a density of 7×10^5 cells per 60 millimeter tissue culture dish in […] (RPMI) medium containing 10% FBS. The medium was changed to RPMI or DME medium containing 10% charcoal-stripped serum 24 hours later to deplete cellular androgens or estrogens. After another 24 hours, treatment with the test compounds began. The test dose of JC15 was 1 or 2 micromolar and the test does of JC9 was 1, 5 and 10 micromolar. LNCap cells also received dihydrotestosterone (DHT) (3 nanomolar). Control cells received a corresponding amount of the vehicle, dimethylsulfoxide (DMSO) (<0.04%) for an equivalent exposure time. Cells were incubated with JC15 for 24 or 48 hours, and were lysed in 250 microliters of 1×SDS/PAGE loading buffer. Approximately 40 micrograms of total cellular protein was loaded in each lane of a pre-cast gel (NuPAGE, Invitrogen). Protein separation and transfer were performed following the manufacturer's instructions.
For the prostate cell lysates, androgen receptor (AR) protein was visualized by incubating the resultant membranes with an anti-AR antibody (BD-PharMingen), followed by chemiluminescence detection (ECL Plus, Amersham). […] The resultant protein signals were quantified using densitometry and NIH ImageJ software.

T1 sequence (P10275 with tags, fused parts or gaps with the stated changes): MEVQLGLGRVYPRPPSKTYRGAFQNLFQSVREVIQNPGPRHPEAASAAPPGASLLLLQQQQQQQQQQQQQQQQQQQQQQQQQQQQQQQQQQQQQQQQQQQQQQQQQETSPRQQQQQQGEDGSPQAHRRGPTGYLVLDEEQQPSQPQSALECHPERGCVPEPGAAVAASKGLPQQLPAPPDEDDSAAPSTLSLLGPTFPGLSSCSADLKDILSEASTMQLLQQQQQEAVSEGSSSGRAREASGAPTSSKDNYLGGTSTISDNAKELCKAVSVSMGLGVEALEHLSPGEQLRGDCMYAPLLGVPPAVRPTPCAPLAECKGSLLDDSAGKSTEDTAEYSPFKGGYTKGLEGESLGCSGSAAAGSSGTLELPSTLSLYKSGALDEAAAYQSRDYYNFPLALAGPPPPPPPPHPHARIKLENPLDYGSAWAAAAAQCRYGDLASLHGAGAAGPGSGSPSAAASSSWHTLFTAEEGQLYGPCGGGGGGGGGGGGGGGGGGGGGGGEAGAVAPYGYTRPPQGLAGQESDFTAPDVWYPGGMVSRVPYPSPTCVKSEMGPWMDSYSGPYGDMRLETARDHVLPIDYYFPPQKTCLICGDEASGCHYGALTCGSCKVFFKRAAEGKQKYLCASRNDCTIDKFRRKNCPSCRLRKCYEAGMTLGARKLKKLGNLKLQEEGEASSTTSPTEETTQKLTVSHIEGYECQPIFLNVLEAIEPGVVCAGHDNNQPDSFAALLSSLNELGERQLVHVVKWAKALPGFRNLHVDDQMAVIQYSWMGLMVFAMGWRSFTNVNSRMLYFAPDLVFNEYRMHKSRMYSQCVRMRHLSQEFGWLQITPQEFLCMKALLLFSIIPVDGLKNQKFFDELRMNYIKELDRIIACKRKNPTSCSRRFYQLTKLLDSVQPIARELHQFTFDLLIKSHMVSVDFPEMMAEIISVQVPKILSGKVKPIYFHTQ
T2 sequence (Q92731 whole entry): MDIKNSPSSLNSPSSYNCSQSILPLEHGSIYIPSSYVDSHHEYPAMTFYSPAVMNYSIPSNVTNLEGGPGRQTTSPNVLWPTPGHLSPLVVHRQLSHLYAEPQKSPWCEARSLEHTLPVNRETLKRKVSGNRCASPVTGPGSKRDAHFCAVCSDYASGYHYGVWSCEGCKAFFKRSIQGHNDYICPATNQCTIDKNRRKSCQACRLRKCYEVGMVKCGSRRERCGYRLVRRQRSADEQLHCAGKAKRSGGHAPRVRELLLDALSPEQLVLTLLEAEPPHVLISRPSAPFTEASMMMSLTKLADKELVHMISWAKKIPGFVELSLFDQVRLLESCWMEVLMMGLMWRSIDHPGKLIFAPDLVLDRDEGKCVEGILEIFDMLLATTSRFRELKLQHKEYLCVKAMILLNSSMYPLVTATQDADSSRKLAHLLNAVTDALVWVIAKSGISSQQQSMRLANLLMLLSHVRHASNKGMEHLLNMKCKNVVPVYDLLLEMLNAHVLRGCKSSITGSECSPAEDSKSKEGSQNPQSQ

cellular concentration of ER beta [4]	SMILES	fluorescent inclusions or aggregates of mutant Q49 androgen receptor [1]	Recovery Time ([2]; 1 micromolar, four times a day) [week]	Recovery Time ([2]; 1 micromolar, twice a day) [weeks]	Recovery Time ([2]; 2.5 micromolar, twice a day) [week]	time within which bands of sebaceous glands were reduced ([3]; JC9 25 micromolar cream, topical)	size of the sebaceous glandular lobe and duct ([3]; JC9 25 micromolar cream)	skin condition of forehead (photographs) ([2]; JC15 1 micromolar in carrier base, acne-affected volunteer, one month topical treatment)	Recovery Time ([2]; 1 micromolar, as often as needed, listed as ASCJ15)	Recovery Time ([2]; 1 micromolar, twice a day, listed as ASCJ15)	size of the sebaceous glandular lobe and duct ([3]; JC15 1 micromolar cream)
–	COc1ccc(C=CC(=O)C=C(O)C=Cc2ccc(OC)c(OC)c2)cc1OC [JC9, 5-hydroxy-1,7-bis(3,4-dimethoxyphenyl)-1,4,6-heptatrien-3-one]	substantially smaller amounts of fluorescent inclusions	1	2	1	4-5 weeks	reduction in the size of the sebaceous glandular lobe and duct; also recorded: significantly reduced the size of lobe and ducts of sebaceous glands	–	–	–	–
did not substantially affect	CCOC(=O)CCC(C(=O)C=Cc1ccc(O)c(OC)c1)C(=O)C=Cc1ccc(O)c(OC)c1 (centres unmarked) [JC15, 7-(4-hydroxy-3-methoxyphenyl)-4-[3-(4-hydroxy-3-methoxyphenyl)acryloyl]-5-oxo-hept-6-enoic acid ethyl ester]	–	–	–	–	–	–	visible improvement to skin condition	1 week weeks (2×) and 2 weeks	2 weeks (2×) and 1 week weeks	reduction in the size of the sebaceous glandular lobe and duct; also recorded: approximately equivalent to the decrease caused by castration
